Test results as given in ChEMBL document CHEMBL5137064, “Therapeutic Potential and Activity Modulation of the Protein Lysine Deacylase Sirtuin 5” (J Med Chem, 2022).
*1 amine or outer side, *2 acyl side, *3 side chain or, on linkers, in order; H or OH if unused. Where a SMILES comes first, the peptide text is derived from it. Side-chain parts run from the residue outwards. The star is where a group is joined. ξ: configuration not given here. Succinyl(3ξ-Ph) = O=C(O)C(CC(=O)*)c1ccccc1; βAsp = O=C(O)[C@H](CC(=O)[*:2])N[*:1]; X2 = CC(CC(=O)*)(C(=O)O)c1ccccc1; X4 = CC(=O)SC(CC(=O)*)C(=O)O; X3 = CCCCC(CC(=O)*)C(=O)O; Cbz = O=C(OCc1ccccc1)*; Bz = O=C(c1ccccc1)*

Experiments:
[1] = molecular target: T1, NAD-dependent protein deacylase sirtuin-5, mitochondrial (Homo sapiens, UniProt Q9NXA8); experiment: Binding affinity to SIRT5 (unknown origin) assessed as deglutarylase activity by measuring inhibition constant
Target sequence in this assay (Q9NXA8 whole entry): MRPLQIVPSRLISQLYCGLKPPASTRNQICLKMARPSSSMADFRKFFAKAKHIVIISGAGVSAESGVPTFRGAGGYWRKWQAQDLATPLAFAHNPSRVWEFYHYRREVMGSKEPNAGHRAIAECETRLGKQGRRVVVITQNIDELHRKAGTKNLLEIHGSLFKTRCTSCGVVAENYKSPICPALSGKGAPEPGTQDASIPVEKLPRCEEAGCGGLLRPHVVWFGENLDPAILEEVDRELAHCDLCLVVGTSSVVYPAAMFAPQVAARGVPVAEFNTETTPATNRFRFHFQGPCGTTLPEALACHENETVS

[2] = system: MOLM-13; experiment: Cytotoxicity against human MOLM-13 cells; format: functional, cell-based
[3] = system: SKM-1; experiment: Induction of apoptosis in human SKM-1 cells at 20 uM relative to control; format: functional
[4] = system: OCI-AML2; experiment: Induction of apoptosis in human OCI-AML2 cells at 20 uM relative to control; format: functional
[5] = system: OCI-AML2; experiment: cells; details: Homo sapiens
Description: Cytotoxicity against human OCI-AML2 cells

[6] = system: SKM-1; experiment: cells; details: Homo sapiens
Description: Cytotoxicity against human SKM-1 cells

[7] = molecular target: T1, NAD-dependent protein deacylase sirtuin-5, mitochondrial; experiment: Binding affinity to SIRT5 (unknown origin) assessed as desuccinylation activity by measuring inhibition constant
Target sequence in this assay (Q9NXA8 whole entry): as above

[8] = molecular target: T2, NAD-dependent protein deacetylase sirtuin-1 (Homo sapiens) (UniProt Q96EB6); experiment: Inhibition of SIRT1 (unknown origin) at 50 uM relative to control
T2 sequence (whole entry): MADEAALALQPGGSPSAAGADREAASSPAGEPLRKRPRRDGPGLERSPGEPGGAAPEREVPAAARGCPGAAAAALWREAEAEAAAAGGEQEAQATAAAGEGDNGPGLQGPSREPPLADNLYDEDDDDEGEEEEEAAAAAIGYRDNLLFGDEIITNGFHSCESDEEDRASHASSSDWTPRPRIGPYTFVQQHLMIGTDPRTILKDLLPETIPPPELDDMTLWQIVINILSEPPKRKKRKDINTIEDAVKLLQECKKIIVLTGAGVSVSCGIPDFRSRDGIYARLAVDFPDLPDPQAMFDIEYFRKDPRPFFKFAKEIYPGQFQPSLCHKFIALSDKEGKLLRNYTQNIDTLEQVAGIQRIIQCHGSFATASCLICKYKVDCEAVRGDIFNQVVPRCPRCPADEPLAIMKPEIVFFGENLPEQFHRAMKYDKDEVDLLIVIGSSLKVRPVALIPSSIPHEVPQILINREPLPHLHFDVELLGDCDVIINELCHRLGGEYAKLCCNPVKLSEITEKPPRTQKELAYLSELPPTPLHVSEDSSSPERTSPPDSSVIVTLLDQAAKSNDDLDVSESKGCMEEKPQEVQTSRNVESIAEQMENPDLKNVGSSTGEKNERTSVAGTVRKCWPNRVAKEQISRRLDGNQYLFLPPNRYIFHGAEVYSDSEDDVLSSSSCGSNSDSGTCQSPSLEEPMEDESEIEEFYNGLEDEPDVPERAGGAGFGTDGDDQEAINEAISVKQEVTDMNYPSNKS

[9] = molecular target: T3, NAD-dependent protein deacetylase sirtuin-2 (Homo sapiens) (UniProt Q8IXJ6); experiment: Inhibition of SIRT2 (unknown origin) at 50 uM relative to control
T3 sequence (whole entry): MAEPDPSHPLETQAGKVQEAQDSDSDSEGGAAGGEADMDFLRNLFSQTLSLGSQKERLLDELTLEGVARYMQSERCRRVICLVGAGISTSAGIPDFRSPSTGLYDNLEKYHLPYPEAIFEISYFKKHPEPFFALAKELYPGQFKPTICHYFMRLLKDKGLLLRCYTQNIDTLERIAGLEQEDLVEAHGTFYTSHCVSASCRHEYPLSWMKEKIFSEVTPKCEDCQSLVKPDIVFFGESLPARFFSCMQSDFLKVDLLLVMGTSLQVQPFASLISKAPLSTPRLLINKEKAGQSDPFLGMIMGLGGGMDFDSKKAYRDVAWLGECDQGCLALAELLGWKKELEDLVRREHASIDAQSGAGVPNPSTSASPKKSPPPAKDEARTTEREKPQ

[10] = molecular target: T4, NAD-dependent protein deacetylase sirtuin-3, mitochondrial (Homo sapiens) (UniProt Q9NTG7); experiment: Inhibition of SIRT3 (unknown origin) at 50 uM relative to control
T4 sequence (whole entry): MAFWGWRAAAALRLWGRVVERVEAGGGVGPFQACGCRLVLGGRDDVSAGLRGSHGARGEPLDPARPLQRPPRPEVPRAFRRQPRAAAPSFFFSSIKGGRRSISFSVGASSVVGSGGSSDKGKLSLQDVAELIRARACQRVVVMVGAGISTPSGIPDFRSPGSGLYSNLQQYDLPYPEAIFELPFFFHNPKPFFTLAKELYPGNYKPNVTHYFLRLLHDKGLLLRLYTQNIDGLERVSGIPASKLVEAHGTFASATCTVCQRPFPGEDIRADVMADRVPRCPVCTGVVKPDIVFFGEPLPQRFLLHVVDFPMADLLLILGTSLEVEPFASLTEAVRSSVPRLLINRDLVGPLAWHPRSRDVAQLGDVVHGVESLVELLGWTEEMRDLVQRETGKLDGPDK

[11] = molecular target: T1, NAD-dependent protein deacylase sirtuin-5, mitochondrial; experiment: Inhibition of SIRT5 desuccinylase activity (unknown origin) using succinyl-lysine as substrate
Target sequence in this assay (Q9NXA8 whole entry): as the sequence (Q9NXA8 whole entry) above

[12] = system: OCI-AML2; experiment: Induction of apoptosis in human OCI-AML2 cells at 10 uM relative to control; format: functional
[13] = system: SKM-1; experiment: Induction of apoptosis in human SKM-1 cells at 5 uM relative to control; format: functional
[14] = molecular target: T1, NAD-dependent protein deacylase sirtuin-5, mitochondrial; experiment: Inhibition of human recombinant SIRT5 using fluorogenic Benzyl-Lys(Succinyl)-AMC as substrate incubated for 2 hrs measured by fluoroscence based microplate reader method
Target sequence in this assay (Q9NXA8 whole entry): as the sequence (Q9NXA8 whole entry) above

[15] = molecular target: T1, NAD-dependent protein deacylase sirtuin-5, mitochondrial; experiment: Binding affinity to SIRT5 (unknown origin) assessed as desuccinylation activity by measuring dissociation constant
Target sequence in this assay (Q9NXA8 whole entry): as the sequence (Q9NXA8 whole entry) above

[16] = molecular target: T1, NAD-dependent protein deacylase sirtuin-5, mitochondrial; experiment: Inhibition of SIRT5 deglutarylase activity (unknown origin)
Target sequence in this assay (Q9NXA8 whole entry): as the sequence (Q9NXA8 whole entry) above

[17] = molecular target: T4, NAD-dependent protein deacetylase sirtuin-3, mitochondrial (Homo sapiens); experiment: Inhibition of SIRT3 (unknown origin) at 10 uM relative to control
[18] = molecular target: T4, NAD-dependent protein deacetylase sirtuin-3, mitochondrial (Homo sapiens); experiment: Inhibition of SIRT3 (unknown origin) at 50 uM incubated for 15 mins by fluorometric assay relative to control
[19] = molecular target: T1, NAD-dependent protein deacylase sirtuin-5, mitochondrial; experiment: Inhibition of SIRT5 (unknown origin) at 50 uM incubated for 15 mins by fluorometric assay relative to control
Target sequence in this assay (Q9NXA8 37-310 limits assumed): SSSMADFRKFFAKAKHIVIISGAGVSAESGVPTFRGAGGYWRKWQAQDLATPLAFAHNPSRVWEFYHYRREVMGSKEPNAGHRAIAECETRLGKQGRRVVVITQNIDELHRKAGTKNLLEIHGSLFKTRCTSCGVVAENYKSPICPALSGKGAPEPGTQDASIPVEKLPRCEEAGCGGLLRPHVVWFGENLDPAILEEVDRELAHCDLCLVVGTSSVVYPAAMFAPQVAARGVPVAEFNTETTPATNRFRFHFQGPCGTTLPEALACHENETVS

[20] = molecular target: T2, NAD-dependent protein deacetylase sirtuin-1 (Homo sapiens); experiment: Inhibition of SIRT1 (unknown origin) at 10 uM relative to control
[21] = molecular target: T2, NAD-dependent protein deacetylase sirtuin-1 (Homo sapiens); experiment: Inhibition of SIRT1 (unknown origin) at 1 uM relative to control
[22] = system: HEK-293T; experiment: Cytotoxicity against human HEK293T cells at 100 uM relative to control; format: toxicity, cell-based
[23] = molecular target: T1, NAD-dependent protein deacylase sirtuin-5, mitochondrial; experiment: Inhibition of SIRT5 activity (unknown origin)

Compound: O=C(O)CCNC(=S)NCCCC[C@H](NS(=O)(=O)c1cccc(F)c1)C(=O)N[C@@H](Cc1c[nH]c2ccccc12)C(=O)NC1CCC1
- Ki [1]: 0.006 µM
- IC50 [2]: 29 µM
- Activity [3]: >80%
- Activity [4]: 25%
- IC50 [5]: > 20 µM
- IC50 [6]: 10 µM

Compound: CC(C)C[C@H](NC(=O)[C@@H](NC(=O)CNC(=O)c1ccccc1)C(C)C)C(=O)N[C@@H](CCCCNC(=O)CC(C)(C(=O)O)c1ccccc1)C(=O)N[C@@H](CCC(=O)O)C(=O)N[C@@H](Cc1ccc(O)cc1)C(=O)NCC(=O)N[C@H](C(N)=O)C(C)C (stereo not given in full) (Bz-GVLK(X2)EYGV-NH2)
- Ki [7]: 4.3 µM
- inhibition [8]: < 1%
- inhibition [9]: 4%
- inhibition [10]: < 1%

Compound: N=C(N)NCCC[C@@H]1NC(=O)CCCCC(=O)NCCCC[C@@H](C(N)=O)NC(=O)[C@H](CCCCNC(=S)NCCC(=O)O)NC1=O
- IC50 [11]: 6.5 µM

Compound: N=C(N)NCCC[C@@H]1NC(=O)CCCCCCC(=O)NCCCC[C@@H](C(N)=O)NC(=O)[C@H](CCCCNC(=S)NCCC(=O)O)NC1=O
- IC50 [11]: 2.2 µM

Compound: N=C(N)NCCC[C@@H]1NC(=O)CCC(=O)NCCCC[C@@H](C(N)=O)NC(=O)[C@H](CCCCNC(=S)NCCC(=O)O)NC1=O
- IC50 [11]: 4 µM

Compound: CC(C)NC(=O)[C@H](Cc1c[nH]c2ccccc12)NC(=O)[C@H](CCCCNC(=S)NCCC(=O)O)NC(=O)OCc1ccccc1
- Activity [12]: >80%
- Activity [13]: >80%

Compound: Cc1ccc(NC(=O)/C(C#N)=C/c2ccc(-c3ccc(C(=O)O)cc3)o2)cc1C
- IC50 [14]: 22.7 µM

Compound: CC(C)C[C@H](NC(=O)[C@@H](NC(=O)CNC(=O)c1ccccc1)C(C)C)C(=O)N[C@@H](CCCCNC(=O)C[C@H](NC(=O)OCc1ccccc1)C(=O)O)C(=O)N[C@@H](CCC(=O)O)C(=O)N[C@@H](Cc1ccc(O)cc1)C(=O)NCC(=O)N[C@H](C(N)=O)C(C)C (Bz-GVLK([βAsp-Cbz])EYGV-NH2)
- Kd [15]: 5.78 µM
- Ki [7]: 38.1 µM

Compound: CC(=O)SC(CC(=O)NCCCC[C@H](NC(=O)[C@H](CC(C)C)NC(=O)[C@@H](NC(=O)CNC(=O)c1ccccc1)C(C)C)C(=O)N[C@@H](CCC(=O)O)C(=O)N[C@@H](Cc1ccc(O)cc1)C(=O)NCC(=O)N[C@H](C(N)=O)C(C)C)C(=O)O (stereo not given in full) (Bz-GVLK(X4)EYGV-NH2)
- Ki [7]: 10.6 µM

Compound: O=C(NC1CCC1)[C@H](Cc1c[nH]c2ccccc12)NC(=O)[C@H](CCCCNC(=S)NCCc1cc(O)on1)NS(=O)(=O)c1cccc(F)c1
- IC50 [16]: 0.29 µM
- inhibition [17]: 40%

Compound: O=C(CC[C@H](NC(=O)OCc1ccccc1)C(=O)O)NCCCC[C@H](NC(=O)OCc1ccccc1)C(=O)Nc1ccccc1
- inhibition [18]: 8%
- inhibition [19]: 42%

Compound: CC(C)C[C@H](NC(=O)[C@@H](NC(=O)CNC(=O)c1ccccc1)C(C)C)C(=O)N[C@@H](CCCCNC(=O)CC(C(=O)O)c1ccccc1)C(=O)N[C@@H](CCC(=O)O)C(=O)N[C@@H](Cc1ccc(O)cc1)C(=O)NCC(=O)N[C@H](C(N)=O)C(C)C (stereo not given in full) (Bz-GVLK(Succinyl(3ξ-Ph))EYGV-NH2)
- Kd [15]: 8.2 µM
- Ki [7]: 100 µM

Compound: Cc1ccc(NC(=O)/C(C#N)=C/c2ccc(-c3ccc(C(=O)O)cc3C)o2)cc1C
- IC50 [14]: 57.4 µM

Compound: CCCCC(CC(=O)NCCCC[C@H](NC(=O)[C@H](CC(C)C)NC(=O)[C@@H](NC(=O)CNC(=O)c1ccccc1)C(C)C)C(=O)N[C@@H](CCC(=O)O)C(=O)N[C@@H](Cc1ccc(O)cc1)C(=O)NCC(=O)N[C@H](C(N)=O)C(C)C)C(=O)O (stereo not given in full) (Bz-GVLK(X3)EYGV-NH2)
- Ki [7]: 17.2 µM

Compound: O=C(NC1CCC1)[C@H](Cc1c[nH]c2ccccc12)NC(=O)[C@H](CCCCNC(=S)NCCc1noc(=O)[nH]1)NS(=O)(=O)c1cccc(F)c1
- IC50 [16]: ≤ 0.05 µM
- inhibition [20]: 37%

Compound: O=C(NC1CCC1)[C@H](Cc1c[nH]c2ccccc12)NC(=O)[C@H](CCCCNC(=S)NCCc1noc(=S)[nH]1)NS(=O)(=O)c1cccc(F)c1
- IC50 [16]: 0.9 µM

Compound: N#C/C(=C\c1ccc(-c2ccc(C(=O)O)cc2)o1)C(=O)Nc1ccc(Cl)c(C(F)(F)F)c1
- IC50 [14]: 16.4 µM

Compound: Cc1ccc(NC(=O)/C(C#N)=C/c2ccc(-c3cccc(C(=O)O)c3)o2)cc1C
- IC50 [14]: 101 µM

Compound: CC(C)C(OC(=O)C(C)(C)C)n1nnnc1CCCNC(=S)NCCCC[C@H](NS(=O)(=O)c1cccc(F)c1)C(=O)N[C@@H](Cc1c[nH]c2ccccc12)C(=O)NC1CCC1 (stereo not given in full)
- IC50 [2]: 24 µM
- inhibition [21]: 76%
- Activity [22]: 35%
- IC50 [5]: 20 µM
- IC50 [6]: 9 µM

Compound: O=C(NC1CCC1)[C@H](Cc1c[nH]c2ccccc12)NC(=O)[C@H](CCCCNC(=S)NCCc1nnn[nH]1)NS(=O)(=O)c1cccc(F)c1
- IC50 [16]: ≤ 0.05 µM
- Ki [1]: 0.0005 µM

Compound: Cc1cc(C)cc(NC(=O)/C(C#N)=C/c2ccc(-c3ccc(C(=O)O)cc3)o2)c1
- IC50 [14]: 37.9 µM

Compound: O=C(O)CCNC(=S)NCCCC[C@H](NS(=O)(=O)c1cccc(F)c1)C(=O)N[C@@H](Cc1c[nH]c2ccccc12)C(=O)NC1CC1
- IC50 [16]: 0.26 µM

Compound: O=C(O)CCNC(=S)NCCCC[C@H](NS(=O)(=O)c1cccc(F)c1)C(=O)N[C@@H](Cc1c[nH]c2ccccc12)C(=O)NC1CCCC1
- IC50 [16]: 0.23 µM

Compound: CC(=O)NCCCC[C@H](NC(=O)[C@H](CCCCNC(=S)NCCC(=O)O)NC(=O)C(CCCNC(=N)N)NC(C)=O)C(N)=O (stereo not given in full)
- IC50 [11]: 93.1 µM

Compound: N#C/C(=C\c1ccc(-c2ccc(C(=O)O)cc2)o1)C(=O)Nc1ccc(C#N)c(C(F)(F)F)c1
- IC50 [14]: 13.9 µM

Compound: O=C(NC1CCC1)[C@H](Cc1c[nH]c2ccccc12)NC(=O)[C@H](CCCCNC(=S)NCc1nnn[nH]1)NS(=O)(=O)c1cccc(F)c1
- IC50 [23]: 5.1 µM
